The term EC50 denotes the concentration at which the effect is half-maximal.

This experiment relates to HCV 1b-377-neo replicon cells. The experiment in a line: HCV replicon assay, HCV 1b-377-neo replicon cells (1b FRET). It is filed as cell-based, Hepatitis C virus genotype 1b. As to conditions: HCV 1b-377-neo replicon cells, HCV 1b genotype, read-out: EC50 range against HCV 1b (Table 2, Range). In short, it runs like this:
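FRET-based replicon assay in HCV 1b-377-neo cells, including a comparison line carrying the NS5A Y2065H mutation that confers resistance to a reference compound.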
On the technique in general: In antiviral work, replicon cells carry a viral genome segment that copies itself.

Read-outs that look alike come from different tables or passages of the source.

As for `CCN(CC)CCC(NC(=O)OC)C(=O)N1CCC[C@H]1c1ncc(-c2ccc(-c3ccc(-c4cnc([C@@H]5CCCN5C(=O)[C@H](NC(=O)OC)c5ccccc5)[nH]4)cc3)cc2)[nH]1` (stereo partly drawn) [Example M66a, methyl ((1R)-2-((2S)-2-(5-(4′-(2-((2S)-1-(4-(diethylamino)-2-((methoxycarbonyl)amino)butanoyl)-2-pyrrolidinyl)-1H-imidazol-5-yl)-4-biphenylyl)-1H-imidazol-2-yl)-1-pyrrolidinyl)-2-oxo-1-phenylethyl)carbamate], the EC50 (Hepatitis C virus) fell in the range of 0.1 to 0.999 µM.

As to `CC[C@H](C(=O)N1CCC[C@H]1c1ncc(-c2ccc(-c3ccc(-c4cnc([C@@H]5CCCN5C(=O)[C@H](NC(=O)OC)c5ccccc5)[nH]4)cc3)cc2)[nH]1)N(CC)CC` [Example M66x, methyl ((1R)-2-((2S)-2-(5-(4′-(2-((2S)-1-((2R)-2-(diethylamino)butanoyl)-2-pyrrolidinyl)-1H-imidazol-5-yl)-4-biphenylyl)-1H-imidazol-2-yl)-1-pyrrolidinyl)-2-oxo-1-phenylethyl)carbamate], the EC50 (Hepatitis C virus) is 0.001 to 0.099 µM.

Turning to `CCN(CC)CCC(NC(=O)OC)C(=O)N1CCC[C@H]1c1ncc(-c2ccc(-c3ccc(-c4cnc([C@@H]5CCCN5C(=O)[C@@H](NC(=O)OC)C(C)C)[nH]4)cc3)cc2)[nH]1` (stereo partly drawn) [Example M67a, methyl ((1S)-1-(((2S)-2-(5-(4′-(2-((2S)-1-(4-(diethylamino)-2-((methoxycarbonyl)amino)butanoyl)-2-pyrrolidinyl)-1H-imidazol-5-yl)-4-biphenylyl)-1H-imidazol-2-yl)-1-pyrrolidinyl)carbonyl)-2-methylpropyl)carbamate], the EC50 (Hepatitis C virus) is 0.1 to 0.999 µM.

With `COC(=O)N[C@@H](CCN1CCOCC1)C(=O)N1CCC[C@H]1c1ncc(-c2ccc(-c3ccc(-c4cnc([C@@H]5CCCN5C(=O)[C@@H](NC(=O)OC)C(C)C)[nH]4)cc3)cc2)[nH]1` [Example M68], the EC50 was in the range of 0.1 to 0.999 µM.

As to `CCN(CC)[C@@H](C)C(=O)N1CCC[C@H]1c1ncc(-c2ccc(-c3ccc(-c4cnc([C@@H]5CCCN5C(=O)[C@@H](NC(=O)OC)C(C)C)[nH]4)cc3)cc2)[nH]1` [Example M69, methyl ((1S)-1-(((2S)-2-(5-(4′-(2-((2S)-1-(N,N-diethyl-L-alanyl)-2-pyrrolidinyl)-1H-imidazol-5-yl)-4-biphenylyl)-1H-imidazol-2-yl)-1-pyrrolidinyl)carbonyl)-2-methylpropyl)carbamate], the EC50 (Hepatitis C virus) was in the range of 0.1 to 0.999 µM.

In the case of `CCN(CC)[C@H](C)C(=O)N1CCC[C@H]1c1ncc(-c2ccc(-c3ccc(-c4cnc([C@@H]5CCCN5C(=O)[C@@H](NC(=O)OC)C(C)C)[nH]4)cc3)cc2)[nH]1` [Example M70, methyl ((1S)-1-(((2S)-2-(5-(4′-(2-((2S)-1-(N,N-diethyl-D-alanyl)-2-pyrrolidinyl)-1H-imidazol-5-yl)-4-biphenylyl)-1H-imidazol-2-yl)-1-pyrrolidinyl)carbonyl)-2-methylpropyl)carbamate], the EC50 (Hepatitis C virus) fell in the range of 0.001 to 0.099 µM.

Turning to `COC[C@H](NC(=O)OC)C(=O)N1CCC[C@H]1c1ncc(-c2ccc(-c3ccc(-c4cnc([C@@H]5CCCN5C(=O)[C@@H](NC(=O)OC)C(C)C)[nH]4)cc3)cc2)[nH]1` [Example M71, methyl ((1S)-2-((2S)-2-(5-(4′-(2-((2S)-1-(N-(methoxycarbonyl)-L-valyl)-2-pyrrolidinyl)-1H-imidazol-5-yl)-4-biphenylyl)-1H-imidazol-2-yl)-1-pyrrolidinyl)-1-(methoxymethyl)-2-oxoethyl)carbamate], the EC50 (Hepatitis C virus) was in the range of 0.001 to 0.099 µM.

In the case of `COC(=O)N[C@H](C(=O)N1CCC[C@H]1c1ncc(-c2ccc(-c3ccc(-c4cnc([C@@H]5CCCN5C(=O)[C@@H](NC(=O)OC)C(C)(C)C)[nH]4)cc3)cc2)[nH]1)C(C)C` [Example M72, methyl ((1S)-1-(((2S)-2-(5-(4′-(2-((2S)-1-((2S)-2-((methoxycarbonyl)amino)-3,3-dimethylbutanoyl)-2-pyrrolidinyl)-1H-imidazol-5-yl)-4-biphenylyl)-1H-imidazol-2-yl)-1-pyrrolidinyl)carbonyl)-2-methylpropyl)carbamate], the EC50 (Hepatitis C virus) is 0.001 to 0.099 µM.

As to `COC(=O)NCC(=O)N1CCC[C@H]1c1ncc(-c2ccc(-c3ccc(-c4cnc([C@@H]5CCCN5C(=O)[C@@H](NC(=O)OC)C(C)C)[nH]4)cc3)cc2)[nH]1` [Example M73, methyl (2-((2S)-2-(5-(4′-(2-((2S)-1-((2S)-2-((methoxycarbonyl)amino)-3-methylbutanoyl)-2-pyrrolidinyl)-1H-imidazol-5-yl)-4-biphenylyl)-1H-imidazol-2-yl)-1-pyrrolidinyl)-2-oxoethyl)carbamate], the EC50 (Hepatitis C virus) lay in the range of 0.1 to 0.999 µM.

For the molecule `CC[C@H](NC(=O)OC)C(=O)N1CCC[C@H]1c1ncc(-c2ccc(-c3ccc(-c4cnc([C@@H]5CCCN5C(=O)[C@@H](NC(=O)OC)C(C)C)[nH]4)cc3)cc2)[nH]1` [Example M74, methyl ((1S)-1-(((2S)-2-(5-(4′-(2-((2S)-1-((2S)-2-((methoxycarbonyl)amino)butanoyl)-2-pyrrolidinyl)-1H-imidazol-5-yl)-4-biphenylyl)-1H-imidazol-2-yl)-1-pyrrolidinyl)carbonyl)-2-methylpropyl)carbamate], the EC50 (Hepatitis C virus) fell in the range of 0.001 to 0.099 µM.

`CCC[C@H](NC(=O)OC)C(=O)N1CCC[C@H]1c1ncc(-c2ccc(-c3ccc(-c4cnc([C@@H]5CCCN5C(=O)[C@@H](NC(=O)OC)C(C)C)[nH]4)cc3)cc2)[nH]1` [Example M75, methyl ((1S)-1-(((2S)-2-(5-(4′-(2-((2S)-1-((2S)-2-((methoxycarbonyl)amino)-3-methylbutanoyl)-2-pyrrolidinyl)-1H-imidazol-5-yl)-4-biphenylyl)-1H-imidazol-2-yl)-1-pyrrolidinyl)carbonyl)butyl) carbamate]: the 50% effective concentration (EC50) was in the range of 0.001 to 0.099 µM.

With `C=CC[C@H](NC(=O)OC)C(=O)N1CCC[C@H]1c1ncc(-c2ccc(-c3ccc(-c4cnc([C@@H]5CCCN5C(=O)[C@@H](NC(=O)OC)C(C)C)[nH]4)cc3)cc2)[nH]1` [Example M76, methyl ((1S)-1-(((2S)-2-(5-(4′-(2-((2S)-1-((2S)-2-((methoxycarbonyl)amino)-3-methylbutanoyl)-2-pyrrolidinyl)-1H-imidazol-5-yl)-4-biphenylyl)-1H-imidazol-2-yl)-1-pyrrolidinyl)carbonyl)-3-buten-1-yl)carbamate], the EC50 (Hepatitis C virus) was 0.001 to 0.099 µM.

Turning to `COC(=O)N[C@H](C(=O)N1CCC[C@H]1c1ncc(-c2ccc(-c3ccc(-c4cnc([C@@H]5CCCN5C(=O)[C@@H](NC(=O)OC)C5CC5)[nH]4)cc3)cc2)[nH]1)C(C)C` [Example M77, methyl ((1S)-1-(((2S)-2-(5-(4′-(2-((2S)-1-((2S)-2-cyclopropyl-2-((methoxycarbonyl)amino)acetyl)-2-pyrrolidinyl)-1H-imidazol-5-yl)-4-biphenylyl)-1H-imidazol-2-yl)-1-pyrrolidinyl)carbonyl)-2-methylpropyl)carbamate], the EC50 (Hepatitis C virus) fell in the range of 0.001 to 0.099 µM.

With `CCN(C)[C@@H](C(=O)N1CCC[C@H]1c1ncc(-c2ccc(-c3ccc(-c4cnc([C@@H]5CCCN5C(=O)[C@@H](NC(=O)OC)C(C)C)[nH]4)cc3)cc2)[nH]1)c1ccccc1` [Example M78, methyl ((1S)-1-(((2S)-2-(5-(4′-(2-((2S)-1-((2R)-2-(ethyl(methyl)amino)-2-phenylacetyl)-2-pyrrolidinyl)-1H-imidazol-5-yl)-4-biphenylyl)-1H imidazol-2-yl)-1-pyrrolidinyl)carbonyl)-2-methylpropyl)carbamate], under “Hepatitis C virus”, the EC50 was in the range of 0.001 to 0.099 µM.

On to `CCN(CC)[C@@H](C(=O)N1CCC[C@H]1c1ncc(-c2ccc(-c3ccc(-c4cnc([C@@H]5CCCN5C(=O)[C@@H](NC(=O)OC)C(C)C)[nH]4)cc3)cc2)[nH]1)C(C)C` [Example M79, methyl ((1S)-1-(((2S)-2-(5-(4′-(2-((2S)-1-(N,N-diethyl-D-valyl)-2-pyrrolidinyl)-1H-imidazol-5-yl)-4-biphenylyl)-1H-imidazol-2-yl)-1-pyrrolidinyl)carbonyl)-2-methylpropyl)carbamate], for which the EC50 (Hepatitis C virus) was in the range of 0.001 to 0.099 µM.

On to `COC(=O)N[C@H](C(=O)N1CCC[C@H]1c1ncc(-c2ccc(-c3ccc(-c4cnc([C@@H]5CCCN5C(=O)[C@H](NC(=O)OC)c5ccccc5)[nH]4)cc3)cc2)[nH]1)C(C)C` [Example M80, methyl ((1S)-1-(((2S)-2-(5-(4′-(2-((2S)-1-((2R)-2-((methoxycarbonyl)amino)-2-phenylacetyl)-2-pyrrolidinyl)-1H-imidazol-5-yl)-4-biphenylyl)-1H-imidazol-2-yl)-1-pyrrolidinyl)carbonyl)-2-methylpropyl)carbamate], for which the EC50 (Hepatitis C virus) fell in the range of 0.001 to 0.099 µM.

Regarding `COC(=O)N[C@H](C(=O)N1CCC[C@H]1c1ncc(-c2ccc(-c3ccc(-c4cnc([C@@H]5CCCN5C(=O)CC(C)C)[nH]4)cc3)cc2)[nH]1)C(C)C` [Example M81, methyl ((1S)-2-methyl-1-(((2S)-2-(5-(4′-(2-((2S)-1-(3-methylbutanoyl)-2-pyrrolidinyl)-1H-imidazol-5-yl)-4-biphenylyl)-1H-imidazol-2-yl)-1-pyrrolidinyl)carbonyl)propyl) carbamate], the EC50 fell in the range of 0.1 to 0.999 µM.

As for `COC(=O)N[C@H](C(=O)N1CCC[C@H]1c1ncc(-c2ccc(-c3ccc(-c4cnc([C@@H]5CCCN5C(=O)N5CCN(C)CC5)[nH]4)cc3)cc2)[nH]1)C(C)C` [Example M82, methyl ((1S)-2-methyl-1-(((2S)-2-(5-(4′-(2-((2S)-1-((4-methyl-1-piperazinyl)carbonyl)-2-pyrrolidinyl)-1H-imidazol-5-yl)-4-biphenylyl)-1H-imidazol-2-yl)-1-pyrrolidinyl)carbonyl)propyl) carbamate], the EC50 fell in the range of 0.001 to 0.099 µM.

Turning to `CCCN(CCC)[C@H](C)C(=O)N1CCC[C@H]1c1ncc(-c2ccc(-c3ccc(-c4cnc([C@@H]5CCCN5C(=O)[C@@H](NC(=O)OC)C(C)C)[nH]4)cc3)cc2)[nH]1` [Example M83, methyl ((1S)-1-(((2S)-2-(5-(4′-(2-((2S)-1-(N,N-dipropyl-D-alanyl)-2-pyrrolidinyl)-1H-imidazol-5-yl)-4-biphenylyl)-1H-imidazol-2-yl)-1-pyrrolidinyl)carbonyl)-2-methylpropyl)carbamate], the EC50 (Hepatitis C virus) lay in the range of 0.001 to 0.099 µM.

These data come from patent US8574563B2 (Bristol-Myers Squibb Company, priority 2006, dated 2013).
